From patent publication US9090600B2, “Fungicidal 4-substituted-3-{phenyl[(heterocyclylmethoxy)imino]methyl}-1,2,4-oxadizol-5(4H)-one derivatives” (BAYER INTELLECTUAL PROPERTY GMBH, priority 2011, dated 2015)
Marks after values point to notes of the source that are not given here.

How the values were obtained:
Phytophthora infestans = type: in vivo; details: tomato plants, spray, 500 ppm, grading 5 days after contamination
[1] = pH 2.7

SMILES: Cn1c(/C(=N\OCc2cccc(NC(=O)C3CC4C=CC3C4)n2)c2ccccc2)noc1=O (centres unmarked) [Example 323]
- Eff. % (Phytophthora infestans): 100%
- LogP [1]: 3.68 [a]

SMILES: CCCC(C)C(=O)Nc1cccc(CO/N=C(/c2cccc(OC)c2)c2noc(=O)n2C)n1 (centres unmarked) [Example 328]
- Eff. % (Phytophthora infestans): 75%
- LogP [1]: 3.87 [a]

SMILES: Cn1c(/C(=N\OCc2cccc(NC(=O)c3cccc(Oc4ccccc4)c3)n2)c2ccccc2)noc1=O [Example 329]
- Eff. % (Phytophthora infestans): 93%
- LogP [1]: 4.61 [a]

SMILES: Cn1c(/C(=N\OCc2cccc(NC(=O)c3ccccc3I)n2)c2ccccc2)noc1=O [Example 331]
- Eff. % (Phytophthora infestans): 98%
- LogP [1]: 3.76 [a]

SMILES: Cn1c(/C(=N\OCc2cccc(NC(=O)Cc3ccccc3Br)n2)c2ccccc2)noc1=O [Example 335]
- Eff. % (Phytophthora infestans): 99%
- LogP [1]: 3.85 [a]

SMILES: CCCC(C)COC(=O)Nc1cccc(CO/N=C(/c2ccccc2)c2noc(=O)n2C)n1 (centres unmarked) [Example 337]
- Eff. % (Phytophthora infestans): 99%
- LogP [1]: 4.83 [a]

SMILES: Cc1ccc(C(=O)Nc2cccc(CO/N=C(/c3ccccc3)c3noc(=O)n3C)n2)o1 [Example 345]
- Eff. % (Phytophthora infestans): 99%
- LogP [1]: 3.46 [a]

SMILES: Cn1c(/C(=N\OCc2cccc(NC(=O)CCc3ccc(Cl)cc3)n2)c2ccccc2)noc1=O [Example 346]
- Eff. % (Phytophthora infestans): 97%
- LogP [1]: 4.17 [a]

SMILES: Cn1c(/C(=N\OCc2cccc(NC(=O)C(F)(F)C(F)(F)C(F)(F)F)n2)c2ccccc2)noc1=O [Example 348]
- Eff. % (Phytophthora infestans): 100%
- LogP [1]: 4.17 [a]

SMILES: CCC(C)COC(=O)Nc1cccc(CO/N=C(/c2ccccc2)c2noc(=O)n2C)n1 (centres unmarked) [Example 350]
- Eff. % (Phytophthora infestans): 98%
- LogP [1]: 4.44 [a]

SMILES: Cn1c(/C(=N\OCc2cccc(NC(=O)c3ccc(Oc4ccccc4)cc3)n2)c2ccccc2)noc1=O [Example 357]
- Eff. % (Phytophthora infestans): 92%
- LogP [1]: 4.58 [a]

SMILES: CCCCC(=O)Nc1cccc(CO/N=C(/c2cccc(OC)c2)c2noc(=O)n2C)n1 [Example 358]
- Eff. % (Phytophthora infestans): 100%
- LogP [1]: 3.55 [a]

SMILES: CCCCOC(=O)Nc1cccc(CO/N=C(/c2cccc(OC)c2)c2noc(=O)n2C)n1 [Example 361]
- Eff. % (Phytophthora infestans): 90%
- LogP [1]: 4.06 [a]

SMILES: COc1cccc(/C(=N/OCc2cccc(NC(=O)CC(C)C)n2)c2noc(=O)n2C)c1 [Example 362]
- Eff. % (Phytophthora infestans): 71%
- LogP [1]: 3.46 [a]

SMILES: C=CCCOC(=O)Nc1cccc(CO/N=C(/c2ccccc2)c2noc(=O)n2C)n1 [Example 363]
- Eff. % (Phytophthora infestans): 99%
- LogP [1]: 3.71 [a]

SMILES: CC(=O)OC(C)(C)C(=O)Nc1cccc(CO/N=C(/c2ccccc2)c2noc(=O)n2C)n1 [Example 367]
- Eff. % (Phytophthora infestans): 100%
- LogP [1]: 3.15 [a]

SMILES: Cc1ccc(CCOC(=O)Nc2cccc(CO/N=C(/c3ccccc3)c3noc(=O)n3C)n2)cc1 [Example 369]
- Eff. % (Phytophthora infestans): 70%
- LogP [1]: 4.53 [a]

SMILES: Cn1c(/C(=N\OCc2cccc(NC(=O)OCC(C)(C)C)n2)c2ccccc2)noc1=O [Example 372]
- Eff. % (Phytophthora infestans): 100%
- LogP [1]: 4.36 [a]

SMILES: Cn1c(/C(=N\OCc2cccc(NC(=O)CCCCCBr)n2)c2ccccc2)noc1=O [Example 374]
- Eff. % (Phytophthora infestans): 100%
- LogP [1]: 3.85 [a]

SMILES: Cc1ccc(CC(=O)Nc2cccc(CO/N=C(/c3ccccc3)c3noc(=O)n3C)n2)cc1 [Example 375]
- Eff. % (Phytophthora infestans): 97%
- LogP [1]: 3.85 [a]

SMILES: Cn1c(/C(=N\OCc2cccc(NC(=O)CCCc3ccccc3)n2)c2ccccc2)noc1=O [Example 377]
- Eff. % (Phytophthora infestans): 99%
- LogP [1]: 4.04 [a]

SMILES: Cn1c(/C(=N\OCc2cccc(NC(=O)Cc3ccc4ccccc4c3)n2)c2ccccc2)noc1=O [Example 381]
- Eff. % (Phytophthora infestans): 75%
- LogP [1]: 4.12 [a]

SMILES: Cc1cccc(/C(=N/OCc2cccc(NC(=O)C(C)(C)C)n2)c2noc(=O)n2C)c1 [Example 387]
- Eff. % (Phytophthora infestans): 100%
- LogP [1]: 3.85 [a]

SMILES: Cn1c(/C(=N\OCc2cccc(NC(=O)C3CCCC3)n2)c2ccccc2)noc1=O [Example 388]
- Eff. % (Phytophthora infestans): 100%
- LogP [1]: 3.62 [a]

SMILES: C=CCCOC(=O)Nc1nc(CO/N=C(/c2ccccc2)c2noc(=O)n2C)cs1 [Example 394]
- Eff. % (Phytophthora infestans): 90%
- LogP [1]: 3.44 [a]

SMILES: COc1ccc(C(=NOCc2cccc(NC(=O)OC(C)(C)C)n2)c2noc(=O)n2C)cc1 [Example 396]
- Eff. % (Phytophthora infestans): 73%
- LogP [1]: 3.96 [a]

SMILES: CCn1c(/C(=N\OCc2cccc(NC(=O)CCc3ccccc3)n2)c2ccccc2)noc1=O [Example 403]
- Eff. % (Phytophthora infestans): 100%
- LogP [1]: 4.01 [a]

SMILES: COc1cccc(C(=NOCc2cccc(NC(=O)C(C)(C)C)n2)c2noc(=O)n2C)c1 [Example 407]
- Eff. % (Phytophthora infestans): 95%
- LogP [1]: 3.55 [a]
